System: MCF-7 cells
Test: MCF-7 cell growth inhibition assay
Type: cell-based
Settings: MCF-7 cells plated in presence of estradiol (1 nM), five days incubation, Presto Blue viability; for inhibition at 1 µM: Homo sapiens, MCF7, 120 h; for % inhibition: at 1 μM
Procedure: MCF-7 Cell Growth Inhibition Assay
MCF-7 cells were plated in 96 well plate in the presence of estradiol (1 nM) and incubated overnight. After 24 hours test compound was added at various concentrations and incubated for five days. On the fifth day, cell viability was evaluated using Presto Blue Cell Viability Reagent. Percentage growth inhibition was calculated as follows: 100−[(O.D. of sample)*100/O.D. of vehicle control] wherein O.D. is optical density.

Row | SMILES | inhibition at 1 µM | % inhibition
1 | CC1=C(c2cccc(O)c2)C(c2ccc(/C=C\CN3CCC(CF)(CF)C3)cc2)Oc2ccc(O)cc21 (stereo not shown) [Compound 67] | 30.1% | –
2 | CC1=C(c2cccc(O)c2)C(c2ccc(C#CCN(C)CCCCCCCCCC(F)F)cc2)Oc2ccc(O)cc21 (stereo not shown) [Compound 69] | – | 19.8%
3 | CC1=C(c2cccc(O)c2)C(c2ccc(/C=C/CN(C)CCCCCCCCC(F)F)cc2)Oc2ccc(O)cc21 (stereo not shown) [Compound 70] | 16.9% | –
4 | CC1=C(c2cccc(O)c2)C(c2ccc(/C=C\CN(C)CCCCCCCCC(F)F)cc2)Oc2ccc(O)cc21 (stereo not shown) [Compound 71] | 56.8% | –
5 | CC1=C(c2cccc(O)c2)C(c2ccc(/C=C\CN3CC[C@@H](CO)C3)cc2)Oc2ccc(O)cc21 (stereo partly shown) [Compound 72] | 31.9% | –
6 | CC1=C(c2cccc(O)c2)C(c2ccc(/C=C\CN3CC[C@@H](C)C3)cc2)Oc2ccc(O)cc21 (stereo partly shown) [Compound 75] | – | 74.4%
7 | CC1=C(c2cccc(O)c2)C(c2ccc(/C=C/CNCCCCCCCCCF)cc2)Oc2ccc(O)cc21 (stereo not shown) [Compound 79] | – | 64.8%
8 | CC1=C(c2cccc(O)c2)C(c2ccc(/C=C/CNCCCCCCCCCF)cc2)Oc2ccc(O)cc21 (stereo not shown) [Compound 80] | – | 53%
9 | CC1=C(c2cc(O)cc(F)c2)C(c2ccc(/C=C\CN3CC[C@@H](C)C3)cc2)Oc2ccc(O)cc21 (stereo partly shown) [Compound 81] | 77.4% | –
10 | CC1=C(c2cc(F)cc(F)c2)C(c2ccc(/C=C\CN3CCN(C)CC3)cc2)Oc2ccc(O)cc21 (stereo not shown) [Compound 83] | 12.9% | –

From patent publication US11465990B2, “Heterocyclic antiestrogens” (SUN PHARMA ADVANCED RESEARCH COMPANY LIMITED, priority 2015, dated 2022)
